Results taken from US20210181179A1, “DIAGNOSIS AND TREATMENT OF IMMUNOTHERAPY-INDUCED NEUROTOXICITY” (MEMORIAL SLOAN KETTERING CANCER CENTER, priority 2018, published 2021).

What was measured:
ALL3.1 (B-ALL) = test: Net production of TRP metabolites in media samples, ALL3.1; type: cell-based
RS4; 11 (B-ALL) = test: Net production of TRP metabolites in media samples, RS4; 11; type: cell-based
CCRF-SB (B-ALL) = test: Net production of TRP metabolites in media samples, CCRF-SB; type: cell-based
HCN2 (cortical neuron) = test: Net production of TRP metabolites in media samples, HCN2; type: cell-based
KARPAS231 (B-ALL) = test: Net production of TRP metabolites in media samples, KARPAS231; type: cell-based
SUP-B15 (B-ALL) = test: Net production of TRP metabolites in media samples, SUP-B15; type: cell-based
HMC3 (microglia) = test: Net production of TRP metabolites in media samples, HMC3; type: cell-based, human
Source text: (§1) Under physiological conditions in the brain, kynurenine metabolism is driven by microglial cells and astrocytes with preferential production of QUIN and KA respectively. […] This may have been due to T cells producing cytokines and/or intermediate metabolites that are further metabolized to QUIN by the cells. In order to identify specific factors that may lead to tryptophan-kynurenine pathway up-regulation for QUIN production, we tested a panel of cytokine and chemokines implicated in NTX and CRS. […] We initially evaluated the panel of the select factors individually (FIGS. 16 A-B). We selected several cytokines based on their effect on rate-limiting enzymes for QUIN production. These included IFNγ, TNF, […], CXCL10 and […]. These enzymes were selected based on their regulation of key enzymes, KMO and KYNU, which may lead to supraphysiological accumulation of QUIN. These factors were further evaluated, individually or in combination, on astrocytoma, microglial, and primary monocyte-derived macrophages for mRNA levels of kynurenine pathway enzymes and kynurenine metabolites production (FIG. 17).

DOAY (medulloblastoma) = test: Net production of TRP metabolites in media samples, DOAY; type: cell-based
BV173 (B-ALL) = test: Net production of TRP metabolites in media samples, BV173; type: cell-based
THP-1 (monocyte) = test: Net production of TRP metabolites in media samples, THP-1; type: cell-based
CCF-STTG1 (astrocytoma) = test: Net production of TRP metabolites in media samples, CCF-STTG1; type: cell-based, human
Source text: as §1

Il6: cytokine
Net production of TRP metabolites in media samples: 3-HK (ALL3.1 (B-ALL)): 1.48 ± 5.3 | Net production of TRP metabolites in media samples: KA (ALL3.1 (B-ALL)): −2.36 ± 6^ | Net production of TRP metabolites in media samples: KYN (ALL3.1 (B-ALL)): 95.16 ± 123.3 | Net production of TRP metabolites in media samples: QUIN (ALL3.1 (B-ALL)): 8.66 ± 36.5 | Net production of TRP metabolites in media samples: 3-HK (RS4; 11 (B-ALL)): −1.36 ± 1.1 | Net production of TRP metabolites in media samples: KA (RS4; 11 (B-ALL)): −6.52 ± 2.3 | Net production of TRP metabolites in media samples: KYN (RS4; 11 (B-ALL)): −3.36 ± 38.7 | Net production of TRP metabolites in media samples: QUIN (RS4; 11 (B-ALL)): 16.28 ± 63.8 | Net production of TRP metabolites in media samples: 3-HK (CCRF-SB (B-ALL)): 27.64 ± 22.5 | Net production of TRP metabolites in media samples: HAA (CCRF-SB (B-ALL)): 9.34 ± 2.1 | Net production of TRP metabolites in media samples: KA (CCRF-SB (B-ALL)): −6.88 ± 1.5 | Net production of TRP metabolites in media samples: KYN (CCRF-SB (B-ALL)): 438.12 ± 308.6 | Net production of TRP metabolites in media samples: QUIN (CCRF-SB (B-ALL)): −51.14 ± 13 ^ | Net production of TRP metabolites in media samples: 3-HK (HCN2 (cortical neuron)): 4.96 ± 0.8 | Net production of TRP metabolites in media samples: HAA (HCN2 (cortical neuron)): 5.48 ± 0.8 | Net production of TRP metabolites in media samples: KA (HCN2 (cortical neuron)): 0.86 ± 2.1 | Net production of TRP metabolites in media samples: KYN (HCN2 (cortical neuron)): −2.08 ± 19^ | Net production of TRP metabolites in media samples: QUIN (HCN2 (cortical neuron)): 0.94 ± 12.9 | Net production of TRP metabolites in media samples: 3-HK (KARPAS231 (B-ALL)): 1.48 ± 2.2 | Net production of TRP metabolites in media samples: HAA (KARPAS231 (B-ALL)): 8.68 ± 1.5 | Net production of TRP metabolites in media samples: KA (KARPAS231 (B-ALL)): −7.58 ± 4.2 | Net production of TRP metabolites in media samples: KYN (KARPAS231 (B-ALL)): −77.44 ± 27.4 | Net production of TRP metabolites in media samples: QUIN (KARPAS231 (B-ALL)): −37.78 ± 29.5 | Net production of TRP metabolites in media samples: 3-HK (SUP-B15 (B-ALL)): 16.58 ± 13.5 | Net production of TRP metabolites in media samples: HAA (SUP-B15 (B-ALL)): 6.44 ± 0.8 | Net production of TRP metabolites in media samples: KA (SUP-B15 (B-ALL)): −6.4 ± 3 | Net production of TRP metabolites in media samples: KYN (SUP-B15 (B-ALL)): 309 ± 182 | Net production of TRP metabolites in media samples: QUIN (SUP-B15 (B-ALL)): −65.6 ± 16^ | Net production of TRP metabolites in media samples: 3-HK (HMC3 (microglia)): 8.44 ± 18 | Net production of TRP metabolites in media samples: HAA (HMC3 (microglia)): 0.12 ± 2.4 | Net production of TRP metabolites in media samples: KA (HMC3 (microglia)): 6.3 ± 3.8 | Net production of TRP metabolites in media samples: KYN (HMC3 (microglia)): 545.08 ± 313^ | Net production of TRP metabolites in media samples: QUIN (HMC3 (microglia)): 61.04 ± 23.7 | Net production of TRP metabolites in media samples: 3-HK (DOAY (medulloblastoma)): −11.68 ± 1.2 | Net production of TRP metabolites in media samples: HAA (DOAY (medulloblastoma)): 11.14 ± 0.8 | Net production of TRP metabolites in media samples: KA (DOAY (medulloblastoma)): 6.16 ± 4.2 | Net production of TRP metabolites in media samples: KYN (DOAY (medulloblastoma)): 41.5 ± 21.6 | Net production of TRP metabolites in media samples: QUIN (DOAY (medulloblastoma)): 29.66 ± 29.4 | Net production of TRP metabolites in media samples: 3-HK (BV173 (B-ALL)): 12.32 ± 11.8 | Net production of TRP metabolites in media samples: KA (BV173 (B-ALL)): −3 ± 3 | Net production of TRP metabolites in media samples: KYN (BV173 (B-ALL)): 244.92 ± 172.4 | Net production of TRP metabolites in media samples: QUIN (BV173 (B-ALL)): 13.06 ± 15.6 | Net production of TRP metabolites in media samples: 3-HK (THP-1 (monocyte)): 0.5 ± 1.2 | Net production of TRP metabolites in media samples: KA (THP-1 (monocyte)): −6.74 ± 6.2 | Net production of TRP metabolites in media samples: KYN (THP-1 (monocyte)): 176.36 ± 33 | Net production of TRP metabolites in media samples: QUIN (THP-1 (monocyte)): −5.14 ± 52.9 | Net production of TRP metabolites in media samples: 3-HK (CCF-STTG1 (astrocytoma)): −8.16 ± 2.2 | Net production of TRP metabolites in media samples: HAA (CCF-STTG1 (astrocytoma)): 11 ± 0.4 | Net production of TRP metabolites in media samples: KA (CCF-STTG1 (astrocytoma)): 5.16 ± 1.1 | Net production of TRP metabolites in media samples: KYN (CCF-STTG1 (astrocytoma)): 4385.94 ± 43.3 | Net production of TRP metabolites in media samples: QUIN (CCF-STTG1 (astrocytoma)): 17.06 ± 11^
